Activity calls are given as the source filed them. No cut-off for these calls is given here.
What was measured:
[1] = Binding affinity to hemin in sodium acetate buffer at pH 5.0
[2] = Binding affinity to heme in sodium acetate buffer at pH 5.0
[3] = Binding affinity to heme in ammonium acetate buffer at pH 5.0 at 40 uM in presence of ferrocyanide
[4] = Binding affinity to oxyhemoglobin in phosphate buffer at pH 7.0 at room temperature over 24 hrs by spectrophotometry
[5] = Binding affinity to methemoglobin in phosphate buffer at pH 7.0 over 30 mins by spectrophotometry
[6] = Binding affinity to oxyhemoglobin in ammonium acetate buffer at pH 8.0 over 24 hrs by spectrophotometry
[7] = Binding affinity to oxyhemoglobin in phosphate buffer at pH 7.0 at 37 degC over 24 hrs by spectrophotometry
[8] = Binding affinity to methemoglobin in phosphate buffer at pH 5.0 over 30 mins by spectrophotometry

Structure (SMILES): C[C@@H]1CC[C@H]2[C@@H](C)C(=O)O[C@@H]3O[C@@]4(C)CC[C@@H]1[C@]32OO4
- Activity [1]: inactive
- Activity [2]: Dose-dependent effect
- Activity [3]: Active

Structure (SMILES): C[C@H]1[C@H](OC(=O)CCC(=O)O)O[C@@H]2O[C@@]3(C)CC[C@H]4[C@H](C)CC[C@@H]1[C@@]24OO3
- Activity [4]: inactive
- Activity [5]: inactive
- Activity [6]: inactive
- Activity [7]: inactive
- Activity [8]: inactive

Source: ChEMBL document CHEMBL1156617, “Heme activates artemisinin more efficiently than hemin, inorganic iron, or hemoglobin” (Bioorg Med Chem, 2008)
